In PubChem BioAssay AID1963856 (Molecular Pharmacology Branch, DTP, NCI, 2024):

Tested on: LG0567-F671-PDC KRAS tumor spheroid viability
Assay: Anticancer human tumor LG0567-F671-PDC patient-derived lung adenocarcinoma cell line growth inhibition [KRAS2]
Conditions: spheroids with HUVEC and MSC; for IC50: curve of first compound; for viability, T/C: stronger effect = lower value; active = viability on the fitted dose curve at most 10% of control; inactive = the rest
Excerpt: Multicellular complex tumor spheroid response to RAS pathway inhibitors in combination with a targeted agents in patient-derived cell lines with oncogenic KRAS variants from multiple cancer types
A high-throughput screen of multi-cell type tumor spheroids was designed to identify active combinations of targeted small molecules and KRAS pathway inhibitors. Complex spheroids include a stromal component modeled by human endothelial cells (HUVEC) and fibroblasts modeled by human mesenchymal stem cells (MSCs). The concentration ranges selected for each drug and investigational agent were based upon clinically achievable concentrations if the clinical Cmax of the agent was known.
Compounds. The drugs and investigational agents: BI-3406 (NSC825286), BAY-293 (NSC824723), batoprotafib (TNO155; NSC825523), sotorasib (AMG 510; NSC818433), MRTX1257 (NSC819558), elimusertib (BAY 1895344; NSC800525), molibresib (GSK525762; NSC774829), temuterkib (LY3214996; NSC803410), venetoclax (NSC766270), alisertib (NSC759677), olaparib (NSC753686), talazoparib (NSC767125), erdafitinib (NSC781556), ipatasertib (NSC767898), cabozantinib (NSC761068), nintedanib (NSC756659), abemaciclib (NSC768073), docetaxel (NSC628503), trametinib (NSC758246), and sapanisertib (NSC764658) were obtained from the National Cancer Institute (NCI) Developmental Therapeutics Program Chemical Repository. The FDA-approved anticancer drug set is available from the Developmental Therapeutics Program. […] The stock solutions were prepared in dimethyl sulfoxide (DMSO, Sigma-Aldrich, St. Louis, MO, cat. D2650) at 800-fold the tested concentration and stored at -70 degrees C prior to their use. All drugs and investigational agents were tested over a range starting from a high concentration at or near the clinical Cmax and decreasing in half-log increments. If the clinical Cmax for an agent had not been determined, the highest concentration tested was 10 microM.
Cell Culture. All cells were maintained in an incubator at 37 degrees C and 5% CO2 with 95% humidity. The PDC lines were cultured according to standard operating procedures established by the NCI PDMR (https://pdmr.cancer.gov/sops/default.htm). Briefly, all PDCs were thawed and cultured in Matrigel-coated flasks prepared with a working solution of 1X Ham's F-12 nutrient mix, without supplementation (Invitrogen, Waltham, MA, cat. 11765054), 100 U/mL penicillin-streptomycin (Invitrogen, cat. 15140122), and 2.5% Matrigel (Corning Inc., Corning, NY, cat. 354248) for the first three passages. All PDCs were cultured in complete DMEM/F-12 media containing advanced DMEM/F-12 (Invitrogen, cat. 12634028), 4.9% defined fetal bovine serum, heat inactivated (HyClone Laboratories Inc., Logan, UT, cat. SH30070.03HI), 389 ng/mL hydrocortisone (Sigma-Aldrich, cat. H4001), 9.7 ng/mL human EGF recombinant protein (Invitrogen, cat. PHG0313), 23.4 microg/mL adenine (Sigma-Aldrich, cat. A2786), 97.3 U/mL penicillin-streptomycin (Invitrogen, cat. 15140122), 1.9 mM L-glutamine (Invitrogen, cat. 25030081), and 9.7 microM Y-27632 dihydrochloride (Tocris Bioscience, Bristol, United Kingdom, cat. 1254). The PDCs were cultured in complete DMEM/F12 media without 9.7 microM Y-27632 dihydrochloride for at least two passages prior to the screen. The established cell line HOP-62 was cultured in RPMI 1640 medium, HEPES (Invitrogen, cat. 22400105) with 10% defined fetal bovine serum (HyClone Laboratories Inc., cat. SH30070.03) and 2 mM L-glutamine (Invitrogen, cat. 25030081). The pooled donor HUVEC were cultured in endothelial cell growth medium 2 (PromoCell, Heidelberg, Germany, cat. C-22011) and the hMSC were cultured in mesenchymal stem cell growth medium 2 (PromoCell, cat. C-28009). For all experiments, HUVEC and hMSC were used at passages </=5, while the malignant cell lines were used at passages </=15. […]
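Also: drug exposure lasted seven days after spheroids formed for three days.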

Cn1ncnc1[C@H]1c2n[nH]c(=O)c3cc(F)cc(c23)N[C@@H]1c1ccc(F)cc1 + CC1OCC2(CCN(c3cnc(Sc4ccnc(N)c4Cl)c(N)n3)CC2)C1N
< 0.316 nM: IC50 (second compound 0.1 µM) | IC50 (second compound 0.316 µM) | IC50 (second compound 1 µM) | IC50 (second compound 3.16 µM) | IC50 (second compound 10 µM)
inactive: viability, T/C (second compound 0.1 µM, first compound 0.000316 µM) 48.9% | viability, T/C (second compound 0.1 µM, first compound 0.001 µM) 53.1% | viability, T/C (second compound 0.1 µM, first compound 0.00316 µM) 52.4% | viability, T/C (second compound 0.1 µM, first compound 0.01 µM) 56.4% | viability, T/C (second compound 0.1 µM, first compound 0.0316 µM) 57.3% | viability, T/C (second compound 0.1 µM, first compound 0.1 µM) 54.9% | viability, T/C (second compound 0.316 µM, first compound 0.000316 µM) 47% | viability, T/C (second compound 0.316 µM, first compound 0.001 µM) 34.5% | viability, T/C (second compound 0.316 µM, first compound 0.00316 µM) 29.1% | viability, T/C (second compound 0.316 µM, first compound 0.01 µM) 36.4% | viability, T/C (second compound 0.316 µM, first compound 0.0316 µM) 32.8% | viability, T/C (second compound 0.316 µM, first compound 0.1 µM) 35.2% | viability, T/C (second compound 1 µM, first compound 0.000316 µM) 29.4% | viability, T/C (second compound 1 µM, first compound 0.001 µM) 25.9% | viability, T/C (second compound 1 µM, first compound 0.00316 µM) 21.9% | viability, T/C (second compound 1 µM, first compound 0.01 µM) 18.9% | viability, T/C (second compound 1 µM, first compound 0.0316 µM) 22.5% | viability, T/C (second compound 1 µM, first compound 0.1 µM) 23.3% | viability, T/C (second compound 3.16 µM, first compound 0.000316 µM) 24.4% | viability, T/C (second compound 3.16 µM, first compound 0.001 µM) 19.1% | viability, T/C (second compound 3.16 µM, first compound 0.00316 µM) 19.1% | viability, T/C (second compound 3.16 µM, first compound 0.01 µM) 15.3% | viability, T/C (second compound 3.16 µM, first compound 0.0316 µM) 12% | viability, T/C (second compound 3.16 µM, first compound 0.1 µM) 13.8% | viability, T/C (second compound 10 µM, first compound 0.000316 µM) 11.2% | viability, T/C (second compound 10 µM, first compound 0.001 µM) 12.2% | viability, T/C (second compound 10 µM, first compound 0.00316 µM) 15.7% | viability, T/C (second compound 10 µM, first compound 0.01 µM) 9.32% | viability, T/C (second compound 10 µM, first compound 0.0316 µM) 8.87% | viability, T/C (second compound 10 µM, first compound 0.1 µM) 7.89%
